# Where “and” joins values, the source holds several entries; their conditions need not be identical. Identical values can stand only once.
# Experiments:
# MCF-7 cells [1] = experiment: In vitro micronucleus assay for cytokinesis block; type: cell-based, human; details: 24 h; for Micronuclei per 1000 binucleated cells, Replicates: single replicate values
# Protocol: The genotoxicity of EEDCs to MCF-7 cells was assessed by the in vitro micronucleus assay for cytokinesis block. MCF-7 cells were seeded at a density of 5×10^4/well in a 12-well plate in SF medium containing DMEM, 7% charcoal-stripped FBS and 4 mM L-glutamine. These cells were treated with test compounds or the positive control for 24 h. Then, cells were washed twice with PBS, treated with 2 μg/mL cytochalasin B, and incubated for 1.5–2 normal cell cycle lengths (~24 h for MCF-7 cells). Finally, cells were washed with PBS and fixed with 4% paraformaldehyde for 10–15 min (in PBS, pH 6.9). Before staining cells with 5% Giemsa stain for 20 min, plates were washed again with PBS and dried. The frequency of micronuclei per 1000 binucleated cells was counted for each well, and the ratio of micronucleus frequency in treated vs. control cells was defined as fold induction. Cells in mitosis were omitted.
# mice = system: mice; parameters: method as in Poul et al. [2009]; details: 20, 200 or 1000 mg/kg twice, 24-h interval, oral gavage; ref Poul et al. [2009]; cited from earlier work
# MCF-7 cells [2] = experiment: MCF-7 cell proliferation assay (MTT reduction); type: cell-based, human; details: MCF-7 cells, MTT
# Protocol: MCF-7 cell line which is sensitive to estrogen (ERα^+) was kindly provided by Dr. Sari Tojkander (Department of Veterinary Biosciences, Faculty of Veterinary Medicine, University of Helsinki). Cells were usually grown in T25 or T75 flasks containing DMEM with or without phenol red and supplemented with 7–10% FBS and 4 mM L-glutamine at 37°C in 5% CO2/95% humidified atmosphere. In order to eliminate the disturbing effect of hormones usually present in FBS, cell culture medium supplemented with commercially available charcoal-stripped FBS and 4 mM L-glutamine (SF medium) was used for experiments.
# The effect of EEDCs on the proliferation of MCF-7 cells was assessed as previously described by measuring the capacity of the cells in each well to reduce MTT reagent (Van Meeuwen et al. [2007]). Approximately 5000 cells/200 μL of SF medium containing DMEM without phenol red, 5% charcoal-stripped FBS, and 4 mM L-glutamine were seeded per well in a 96-well cell culture plate. On day 2, cells were treated with the SF medium containing test compounds or vehicle. The final concentration of the solvents DMSO and EtOH was lower than 0.1%. On day 5, the SF medium containing test compounds or vehicle were refreshed. On day 8, cells were washed with PBS twice and then incubated with the SF medium containing 1 mg/mL MTT reagent for 1 h. The ability of MCF-7 cells to reduce MTT was measured at the reference wavelength of 595 nm using a microplate reader (Multiskan Ascent, Thermo Fisher Scientific). All the exposures were in triplicate.
# The dose-response curves of test samples were plotted against logarithmic-transformed concentrations.
compound,measurement,setting,value
O=C([O-])C1=NN(c2ccc(S(=O)(=O)[O-])cc2)C(=O)C1N=Nc1ccc(S(=O)(=O)[O-])cc1.[Na+].[Na+].[Na+] (stereo not drawn) [tartrazine],Fold (micronucleus frequency treated vs. control),MCF-7 cells [1]; 10^−7 M,2.81
same,"Micronuclei per 1000 binucleated cells, Average",MCF-7 cells [1]; 10^−7 M,29 per 1000 binucleated cells
same,"Micronuclei per 1000 binucleated cells, Replicates",MCF-7 cells [1]; 10^−7 M,29 per 1000 binucleated cells and 31 per 1000 binucleated cells and 27 per 1000 binucleated cells
same,Fold (micronucleus frequency treated vs. control),MCF-7 cells [1]; 10^−8 M,2.10
same,"Micronuclei per 1000 binucleated cells, Average",MCF-7 cells [1]; 10^−8 M,21.67 per 1000 binucleated cells
same,"Micronuclei per 1000 binucleated cells, Replicates",MCF-7 cells [1]; 10^−8 M,21 per 1000 binucleated cells and 19 per 1000 binucleated cells and 25 per 1000 binucleated cells
same,mutagenic or cytotoxic effects in mice,mice,did not elicit mutagenic or cytotoxic effects
same,efficacy (maximum induction of cell growth) compared with 17β-estradiol,MCF-7 cells [2],about one third
same,EC50,"MCF-7 cells [2]; hormone-depleted medium, read-out: EC50 (proliferative effect)",7.46 nM

# Reference: publication PMC8164609 (Environmental Science and Pollution Research International, 2021)
